Data set [1] addresses T1, cathepsin B-like cysteine peptidase (DCcathB) (Diaphorina citri, UniProt A0A0U4DX43).
T1 construct: mature peptide residues 70 to 374
T1 sequence (A0A0U4DX43 70-374): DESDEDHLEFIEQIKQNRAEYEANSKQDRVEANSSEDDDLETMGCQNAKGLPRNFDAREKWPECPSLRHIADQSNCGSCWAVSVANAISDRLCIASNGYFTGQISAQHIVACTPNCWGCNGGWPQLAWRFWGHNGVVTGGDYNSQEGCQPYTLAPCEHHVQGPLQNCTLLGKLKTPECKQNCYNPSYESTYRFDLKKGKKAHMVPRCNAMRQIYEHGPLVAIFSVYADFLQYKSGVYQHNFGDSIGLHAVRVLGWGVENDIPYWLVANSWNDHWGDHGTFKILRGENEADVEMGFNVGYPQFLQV
Kind of data set: fluorogenic inhibition assay, Z-F-R-AMC substrate, purified recombinant enzyme. Format: biochemical.

Substrate in data set [2]: Cc1cc(=O)oc2cc(NC(=O)[C@H](CCCNC(=N)N)NC(=O)[C@H](CCCNC(=N)N)NC(=O)OCc3ccccc3)ccc12
Kind of data set: fluorogenic substrate hydrolysis, Km, purified recombinant enzyme. Format: biochemical, Diaphorina citri.

Substrate in data set [3]: Cc1cc(=O)oc2cc(NC(=O)[C@H](CCCNC(=N)N)NC(=O)[C@H](Cc3ccccc3)NC(=O)OCc3ccccc3)ccc12
The data set is described as above. Format: biochemical, Diaphorina citri.

As a reminder, the IC50 is the concentration that inhibits the measured activity by half. As to `CCCNC(=O)[C@H]1O[C@@H]1C(=O)N[C@H](C(=O)N1CCC[C@H]1C(=O)O)[C@@H](C)CC` [CA-074, N-(l-3-trans-propylcarbamoyloxirane-2-carbonyl)-L-isoleucyl-L-proline], the IC50 in data set [1] is 0.095 nM.
Take `CC(C)C[C@H](NC(=O)[C@H]1O[C@@H]1C(=O)O)C(=O)NCCCCN=C(N)N` [E-64, L-trans-Epoxysuccinyl-leucylamido(4-guanidino)butane]: the concentration for half-maximal inhibition (IC50) in data set [1] turned out to be 14 nM.

B1: cathepsin B-like cysteine peptidase (DCcathB) (Diaphorina citri) (protein)
chain: T1 sequence (A0A0U4DX43 70-374)
notes: mature peptide residues 70 to 374
A word on the Km: it is the concentration of substrate that gives half-maximal velocity. With B1, the figures for the Michaelis constant (Km) in data set [2] and in data set [3] were 6.13 µM and 23.5 µM, respectively.
